Here are results for 8 molecules from patent US20180055868A1, “METHODS AND COMPOSITIONS FOR STIMULATING BONE REGENERATION” (New York University, priority 2012, published 2018).

Test [1] concerns trephined calvarium bone defect. Description: Trephined 3 mm calvarial defect, collagen matrix reinjected daily, microCT bone regeneration (Example 2). Type of test: in vivo, mice. To be noted: 8 weeks post trephination; for concentration achieving maximal effect on bone regeneration / dose dependence of effect on bone regeneration: FIG. 3; for effect on bone regeneration: microCT, FIG. 2. The procedure: In FIG. 2B, the percentage bone regeneration is calculated as the percent of the original defect that was now filled with bone.
(§1) A 3 mm portion of the calvarium was trephined with a drill followed by implantation of a collagen matrix soaked in either a vehicle or a pharmacologic agent and/or receptor antagonists to promote bone regeneration. The matrix was reinjected daily with the agent for periods ranging from 2-8 weeks prior to harvest of the mice and examination of the calvaria. […] Experiments were performed with specific agonists and antagonists at varying doses, and specific receptor agonists were tested on corresponding knockout mice to better confirm the role of the indicated receptor.
(§2) Some of the calvaria were decalcified, and histochemical and immunohistochemical staining and microscopic analyses were performed. Other calvaria were cleaned of adherent tissue and subject to microCT analysis for bone defect size and percent regeneration measures.

Test [2] deals with trephined calvarium bone defect in A2BKO mice. Description: Calvarial defect bone regeneration in A2B receptor knockout (A2BKO) mice. It is filed as in vivo. To be noted: 8 weeks post trephination, FIG. 5. The procedure:
as §1

The test system of test [3] is osteoblasts and osteoclasts in the regenerating bone. Description: Histochemical and immunohistochemical staining of regenerating calvarial bone sections. Type of test: in vivo, mice. To be noted: for TRAP stained osteoclasts in the regenerating bone / alkaline phosphatase positive osteoblasts in the regenerating bone / RANK+ cells in the regenerating bone / RANKL+ cells in the regenerating bone / osteoprotegerin+ cells in the regenerating bone: cells/hpf vs control; for TRAP stained osteoclasts in the regenerating bone / alkaline phosphatase positive osteoblasts in the regenerating bone: FIG. 7; for bone formation shown histologically: histology of calvaria, FIG. 9; for RANK+ cells in the regenerating bone / RANKL+ cells in the regenerating bone / osteoprotegerin+ cells in the regenerating bone: immunohistochemistry, FIG. 8.
Excerpt: Shown in FIG. 7A are representative medium powered fields of calvarial sections stained immunohistochemically for alkaline phosphatase (left hand column, a marker for osteoblasts). Shown in the next column of figures are sections stained histochemically for tartrate resistant acid phosphatase (a marker for osteoclasts). Arrows in these figures point to osteoblasts (first column) or osteoclasts (second column).
Paraffin embedded sections are stained immunohistochemically for RANK, RANKL or osteoprotegerin. Slides are imaged and positive cells (brown) are enumerated in three fields. Shown on the left are representative medium power sections of immunohistochemcically stained sections.
Staining of decalcified bone sections for osteoclasts (TRAP staining) and osteoblasts (alkaline phosphatase staining) was performed. Immunostaining for other markers of osteoclast (cathepsin K) lineage and other molecules of interest (e.g. semaphorin 4D, plexin-B1, nuclear b-catenin) were performed.
as §2

Test [4] deals with peripheral blood monocytes. To be noted: effect mediated by adenosine acting at A1 receptors; cited from earlier work.
The target of the next test is T1, A3 adenosine receptor (Homo sapiens, UniProt P0DMS8).
T1 sequence (P0DMS8 1-318): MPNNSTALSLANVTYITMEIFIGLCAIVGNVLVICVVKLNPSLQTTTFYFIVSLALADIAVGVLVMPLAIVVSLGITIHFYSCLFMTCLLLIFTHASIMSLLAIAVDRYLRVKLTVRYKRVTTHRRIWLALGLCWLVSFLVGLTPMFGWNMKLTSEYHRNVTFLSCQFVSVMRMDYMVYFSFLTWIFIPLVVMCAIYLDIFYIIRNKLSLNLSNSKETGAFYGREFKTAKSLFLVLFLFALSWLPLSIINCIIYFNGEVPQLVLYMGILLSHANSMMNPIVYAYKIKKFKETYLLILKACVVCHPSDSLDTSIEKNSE
To be noted: cited from earlier work.

The next test relates to defect in mouse calvaria. Description: 3 mm mouse calvarial bone defect with drug-soaked collagen matrix, microCT (Example 1). It is filed as in vivo, C57B6 mice. The following applies: collagen matrix in 3 mm calvarial defect, 8 weeks. The procedure: . Under general anesthesia a 3 mm in diameter defect is drilled into the skull of C57B6 mice. […]. The matrix is then reinjected with 100 μl of these agents daily for 8 weeks before harvest. […] FIG. 1B represents the percentage bone regeneration calculated as the percent of the original defect that was now filled with bone. Shown are the means (+SD) of results obtained in 3 animals for each condition. Results were analyzed by ANOVA. ***p<0.001
A 3 mm in diameter defect was created in mouse calvaria into which was fit a collagen matrix. […].

For the molecule `N#Cc1c(N)nc(SCC(N)=O)c(C#N)c1-c1ccc(OCC2CC2)cc1` [BAY606583], in test [1], the “concentration achieving maximal effect on bone regeneration” value (“concentration achieving maximal effect” below) is 1 µM, the “dose dependence of effect on bone regeneration” value (“dose dependence of effect” below) is on record as “dose-dependent” and the “effect on bone regeneration” value is “stimulate bone regeneration”.
For the molecule `CCNC(=O)[C@H]1O[C@@H](n2cnc3c(N)nc(NCCc4ccc(CCC(=O)O)cc4)nc32)[C@H](O)[C@@H]1O` [CGS21680], in test [2], the “effect of the agent on bone regeneration upon deletion of the A2B receptor” value was “reverses the effect”. In test [3], the “TRAP stained osteoclasts in the regenerating bone” value (shortened to “TRAP stained osteoclasts”) is on record as “reduce”, the “alkaline phosphatase positive osteoblasts in the regenerating bone” value is listed as “increase”, the “bone formation shown histologically” value was “bone formation” and the “RANK+ cells in the regenerating bone” value is listed as “reduction”. Besides, in test [3], the “RANKL+ cells in the regenerating bone” value was “reduction” and the “osteoprotegerin+ cells in the regenerating bone” value (“osteoprotegerin+ cells” below) is “increase”. Moreover, in test [1], the “concentration achieving maximal effect” value came out at 1 µM, the “dose dependence of effect” value is given as “dose-dependent” and the “effect on bone regeneration” value is listed as “stimulate bone regeneration”.
For `CCCn1c(=O)c2[nH]c(C3CCCC3)nc2n(CCC)c1=O` [DPCPX, 8-Cyclopentyl-1,3-dipropylxanthine], the “effect of the agent on bone regeneration upon deletion of the A2B receptor” value in test [2] is “reverses the effect”. In addition, in test [3], the “TRAP stained osteoclasts” value is on record as “reduce”, the “alkaline phosphatase positive osteoblasts in the regenerating bone” value is “increase”, the “bone formation shown histologically” value is reported as “bone formation” and the “RANK+ cells in the regenerating bone” value is given as “reduction”. In test [3], the “RANKL+ cells in the regenerating bone” value is reported as “reduction” and the “osteoprotegerin+ cells” value is given as “increase”. In addition, in test [1], the “concentration achieving maximal effect” value came to 1 µM, the “dose dependence of effect” value is “dose-dependent” and the “effect on bone regeneration” value is recorded as “stimulate bone regeneration”.
Turning to `CN(Cc1cnc2nc(N)nc(N)c2n1)c1ccc(C(=O)N[C@@H](CCC(=O)O)C(=O)O)cc1` [Methotrexate], the giant cell formation entry in test [4] is listed as “increases giant cell formation”.
As to `Nc1nc(NCCc2ccc(O)cc2)nc2nc(-c3ccco3)nn12` [ZM241385], in test [1] (FIG. 4), the “effect of antagonist on bone regeneration promoted by dipyridamole” value is given as “blocks the effect” and the “effect of antagonist on bone regeneration promoted by the A2A agonist CGS21680” value was “blocks the effect”.
As to `CNC(=O)[C@H]1O[C@@H](n2cnc3c(NCc4cccc(I)c4)ncnc32)[C@H](O)[C@@H]1O` [adenosine A3 receptor agonist], in test [1], the “concentration achieving maximal effect” value was found to be 1 µM, the “dose dependence of effect” value is on record as “dose-dependent” and the “effect on bone regeneration” value is “no effect”.
Regarding `Nc1ncnc2c1ncn2[C@@H]1O[C@H](CO)[C@@H](O)[C@H]1O` [adenosine], the affinity for adenosine entry on A3 adenosine receptor was “low-micromolar range”.
For the molecule `OCCN(CCO)c1nc(N2CCCCC2)c2nc(N(CCO)CCO)nc(N3CCCCC3)c2n1` [dipyridamole], the “effect on bone regeneration” value with defect in mouse calvaria is reported as “stimulates bone regeneration”. Further, in test [3], the “TRAP stained osteoclasts” value is “reduce”, the “alkaline phosphatase positive osteoblasts in the regenerating bone” value is “increase”, the “bone formation shown histologically” value is listed as “bone formation” and the “RANK+ cells in the regenerating bone” value is on record as “reduction”. Further, in test [3], the “RANKL+ cells in the regenerating bone” value is reported as “reduction” and the “osteoprotegerin+ cells” value is listed as “increase”. Also, in test [1], the “concentration achieving maximal effect” value came out at 1 µM, the “dose dependence of effect” value is on record as “dose-dependent” and the “effect on bone regeneration” value is “promotes bone regeneration”.
